Values quoted from earlier work in article PMC5941251 (Molecular Pharmaceutics, 2018).

- risk of anaphylactic shock: 0.05–0.2%
SMILES: CC1(C)C(/C=C/C=C/C=C/C=C2\N(CCCCS(=O)(=O)O)c3ccc4ccccc4c3C2(C)C)=[N+](CCCCS(=O)(=O)[O-])c2ccc3ccccc3c21 [ICG, indocyanine green]
